Measured values as given in patent publication US7598244B2, “[1,2,4]triazolo[1,5,a]pyrimidin-2-ylurea derivative and use thereof” (Nippon Kayaku Kabushiki Kaisha, priority 2003, dated 2009).

Tested on: MHC class I molecules of T1 cells (human lymphoma cell line 174×CEM.)
Assay: Effect on expression of MHC class I from T1 cells (flow cytometry, MFI)
Assay type: cell-based
Conditions: 3 days culture
Experimental: Effect on Expression of MHC Class I from T1 Cells (Human Lymphoma Cell Line 174×CEM.)
Using a 96-well flat bottom microplate, T1 cells (5.7×10^3 cells/200 μl/well) were cultured in an RPMI 1640 medium (Iwaki Glass) containing 10% fetal bovine serum (hereinafter abbreviated as FBS; Iruvine Scientific) in an incubator containing 5% carbon dioxide at 37° C. for 3 days, in the presence of a test compound having each concentration obtained by dilution at a common ratio route of 10 from 400 μM. After completion of the culture, the cells were stained with fluoroisothiocyanate-labeled mouse anti-human MHC class I monoclonal antibody (an antibody produced from the cell line W6/32 (ATCC No. CRL 1991)). The mean fluorescence intensity of the stained cells (hereinafter referred to as MFI) was measured using flow cytometry FACScan (BD). The obtained value was defined as an expression level of MHC class I molecules. A test compound concentration necessary for suppressing 20% of the expression level of MHC class I molecules (EC20 value) was calculated using the following formula (1).
[formula] • Eexp: MFI of cultured cells containing test compound after being stained with antibody • Cexp: MFI of cultured cells containing no test compounds after being stained with antibody

Row | Compound | EC20 (concentration necessary for suppressing 20% of the expression level of MHC class I molecules)
1 | COc1ccc(-c2ccnc3nc(NC(=O)N[C@H](C(=O)Nc4ccccc4)C(C)C)nn23)cc1 [Example 088] | 150 nM
2 | COc1cccc(-c2ccnc3nc(NC(=O)NC4CCCCC4)nn23)c1 [Example 017] | 220 nM
3 | C[C@H](NC(=O)Nc1nc2nccc(-c3cccs3)n2n1)C(=O)OC(C)(C)C [Example 050] | 330 nM
4 | COc1ccc(-c2ccnc3nc(NC(=O)N[C@@H](C)c4ccc([N+](=O)[O-])cc4)nn23)cc1 [Example 139] | 130 nM
5 | CCCC(C)NC(=O)Nc1nc2nccc(-c3cccs3)n2n1 (centres unmarked) [Example 284] | 190 nM
6 | COc1ccc(-c2ccnc3nc(NC(=O)NC(C)CC(C)C)nn23)cc1 (racemic) [Example 235] | 590 nM
7 | COc1ccc(-c2ccnc3nc(NC(=O)NC4CCCC(C(=O)N(C)C)C4)nn23)cc1 (centres unmarked) [Example 175] | 300 nM
8 | COc1cccc([C@H](C)NC(=O)Nc2nc3nccc(-c4cccc(OCCc5ccncc5)c4)n3n2)c1 [Example 209] | 40 nM
9 | COCCOc1ccc(-c2ccnc3nc(NC(=O)N[C@@H](C)c4cccc(OC)c4)nn23)cc1 [Example 244, (S)-1-{7-[4-(2-methoxyethoxy)phenyl]-[1,2,4]triazolo[1,5-a]pyrimidin-2-yl}-3-[1-(3-methoxyphenyl)ethyl]urea] | 19 nM
10 | COc1cccc([C@H](C)NC(=O)Nc2nc3nccc(-c4cccc(OCCCN5CCOCC5)c4)n3n2)c1 [Example 249] | 70 nM
11 | CC(C)CCC[C@H](C)NC(=O)Nc1nc2nccc(-c3cccc(O)c3)n2n1 [Example 257] | 30 nM
12 | O=C(Nc1nc2nccc(-c3ccccc3)n2n1)NC1CCCCC1 [Example 014] | 570 nM
13 | COc1cccc([C@H](C)NC(=O)Nc2nc3nccc(-c4ccc(OC(=O)N5CCC(N6CCCCC6)CC5)cc4)n3n2)c1 [Example 293] | 90 nM
14 | COc1ccc(-c2ccnc3nc(NC(=O)NCCCc4ccccc4)nn23)cc1 [Example 102] | 190 nM
15 | CCOCCC(C)NC(=O)Nc1nc2nccc(-c3cccs3)n2n1 (centres unmarked) [Example 281] | 120 nM
16 | CC(C)CCC[C@H](C)NC(=O)Nc1nc2nccc(-c3cccc(OCC4CCCO4)c3)n2n1 (some centres unmarked) [Example 260] | 60 nM
17 | COc1ccc(-c2ccnc3nc(NC(=O)NC(C)CCCC(=O)N4CCOCC4)nn23)cc1 (centres unmarked) [Example 275] | 540 nM
18 | CC[C@H](C)NC(=O)Nc1nc2nccc(-c3ccc(OC)cc3)n2n1 [Example 234] | 220 nM
19 | CC(C)NC(=O)Nc1nc2nccc(-c3ccc4c(c3)CCO4)n2n1 [Example 046] | 340 nM
20 | COc1ccc(-c2ccnc3nc(NC(=O)N[C@H](C(=O)N4CCOCC4)C(C)C)nn23)cc1 [Example 070] | 480 nM
21 | COCCOCOc1ccc(-c2ccnc3nc(NC(=O)N[C@@H](C)c4cccc(OC)c4)nn23)cc1 [Example 227] | 70 nM
22 | COc1ccc(-c2ccnc3nc(NC(=O)NC(C)CCC(=O)N4CCOCC4)nn23)cc1 (centres unmarked) [Example 273] | 600 nM
23 | COc1ccc(-c2ccnc3nc(NC(=O)N[C@H](C(=O)NCC4CCCCC4)C(C)C)nn23)cc1 [Example 092] | 200 nM
24 | COc1ccc(-c2ccnc3nc(NC(=O)NCCC(=O)OC(C)(C)C)nn23)cc1 [Example 109] | 110 nM
25 | CC(C)NC(=O)Nc1nc2nccc(-c3cccc(OCCc4ccccc4)c3)n2n1 [Example 180] | 350 nM
26 | CC(C)CCC[C@H](C)NC(=O)Nc1nc2nccc(-c3cccc(OCCN4CCOCC4)c3)n2n1 [Example 259] | 60 nM
27 | COc1ccc(-c2ccnc3nc(NC(=O)NCC4CCCCC4)nn23)cc1 [Example 099] | 440 nM

Row | Compound | EC20 (concentration necessary for suppressing 20% of the expression level of MHC class I molecules)
28 | COc1ccc(-c2ccnc3nc(NC(=O)N[C@H](C(=O)N(C)Cc4ccccc4)C(C)C)nn23)cc1 [Example 093] | 700 nM
29 | COC(=O)[C@@H](C)NC(=O)Nc1nc2nccc(-c3ccc(OC)cc3)n2n1 [Example 126] | 320 nM
30 | COc1cccc(C(C)NC(=O)Nc2nc3nccc(-c4cccc(OCC5CCCO5)c4)n3n2)c1 (mixture of isomers) [Example 206] | 220 nM
31 | COc1cccc([C@H](C)NC(=O)Nc2nc3nccc(-c4cccc(OCCCc5cccnc5)c4)n3n2)c1 [Example 210] | 130 nM
32 | COc1cccc([C@H](C)NC(=O)Nc2nc3nccc(-c4ccc(OCCC5OCCCO5)cc4)n3n2)c1 [Example 225] | 50 nM
33 | COCOc1cccc(-c2ccnc3nc(NC(=O)N[C@@H](C)c4cccc(OC)c4)nn23)c1 [Example 212] | 180 nM
34 | COc1cccc([C@H](C)NC(=O)Nc2nc3nccc(-c4cccc(OCCN(C)C)c4)n3n2)c1 [Example 205] | 190 nM
35 | CC[C@H](NC(=O)Nc1nc2nccc(-c3ccc(OC)cc3)n2n1)C(=O)N1CCOCC1 [Example 149] | 630 nM
36 | COc1cccc([C@H](C)NC(=O)Nc2nc3nccc(-c4cccc(O)c4)n3n2)c1 [Example 200] | 70 nM
37 | COc1cccc([C@H](C)NC(=O)Nc2nc3nccc(-c4ccc(OCC5CCCO5)cc4)n3n2)c1 (some centres unmarked) [Example 224] | 90 nM
38 | COCCCC(C)NC(=O)Nc1nc2nccc(-c3ccc(OC)cc3)n2n1 (centres unmarked) [Example 314] | 80 nM
39 | COc1cccc([C@H](C)NC(=O)Nc2nc3nccc(-c4cccc(Cl)c4)n3n2)c1 [Example 303] | 680 nM
40 | COc1ccc(-c2ccnc3nc(NC(=O)NCc4cc(OC)c(OC)c(OC)c4)nn23)cc1 [Example 247] | 37 nM
41 | COc1ccc(-c2ccnc3nc(NC(=O)NCCc4cccnc4)nn23)cc1 [Example 104] | 430 nM
42 | COc1ccc(-c2ccnc3nc(NC(=O)NC(C)CCN(C)C(=O)C(C)(C)OC(C)=O)nn23)cc1 (centres unmarked) [Example 298] | 80 nM
43 | COc1cccc([C@H](C)NC(=O)Nc2nc3nccc(-c4ccc(OCCN5CCOCC5)cc4)n3n2)c1 [Example 269] | 15 nM
44 | COCCCC[C@H](C)NC(=O)Nc1nc2nccc(-c3ccc(OC)cc3)n2n1 [Example 233] | 40 nM
45 | COc1ccc(-c2ccnc3nc(NC(=O)N[C@@H](C)c4ccc(Br)cc4)nn23)cc1 [Example 129] | 180 nM
46 | COCCOCCOCCOc1cccc(-c2ccnc3nc(NC(=O)N[C@@H](C)c4cccc(OC)c4)nn23)c1 [Example 239] | 110 nM
47 | CCCC(C)NC(=O)Nc1nc2nccc(-c3ccc(OC)cc3)n2n1 (centres unmarked) [Example 285] | 320 nM
48 | CC(C)CCC[C@H](C)NC(=O)Nc1nc2nccc(-c3cccs3)n2n1 [Example 246] | 50 nM
49 | COc1ccc(-c2ccnc3nc(NC(=O)N[C@@H](C)c4ccc(OC)cc4)nn23)cc1 [Example 133] | 190 nM
50 | CC(NC(=O)Nc1nc2nccc(-c3ccc4c(c3)OCO4)n2n1)c1ccc2c(c1)OCO2 (centres unmarked) [Example 301] | 640 nM
51 | C[C@H](NC(=O)Nc1nc2nccc(-c3cccs3)n2n1)c1ccc(O)cc1 [Example 182] | 280 nM
52 | COc1ccc(-c2ccnc3nc(NC(=O)NCc4ccncc4)nn23)cc1 [Example 103] | 620 nM
53 | COc1ccc(-c2ccnc3nc(NC(=O)NCc4ccccn4)nn23)cc1 [Example 083] | 870 nM
